{
  "source": "patent US20030225007A1",
  "about": "“Sulfonamide derivatives of 3-substituted imidazol[1,2-d]-1,2,4-thiadiazoles and 3-substituted-[1,2,4] thiadiazolo[4,5-a] benzimidazole as inhibitors of fibrin cross-linking and transglutaminases” (Apotex Inc., priority 2002, published 2003)",
  "key": {"[1]": {"molecular_target": "T1, endogenous Factor XIII in plasma (Plasma FXIIIa) (Homo sapiens, UniProt P00488)", "T1 construct": "from tissue; host or cells: citrated plasma (desensitized by heating)", "T1 sequence (P00488 39-732 limits assumed)": "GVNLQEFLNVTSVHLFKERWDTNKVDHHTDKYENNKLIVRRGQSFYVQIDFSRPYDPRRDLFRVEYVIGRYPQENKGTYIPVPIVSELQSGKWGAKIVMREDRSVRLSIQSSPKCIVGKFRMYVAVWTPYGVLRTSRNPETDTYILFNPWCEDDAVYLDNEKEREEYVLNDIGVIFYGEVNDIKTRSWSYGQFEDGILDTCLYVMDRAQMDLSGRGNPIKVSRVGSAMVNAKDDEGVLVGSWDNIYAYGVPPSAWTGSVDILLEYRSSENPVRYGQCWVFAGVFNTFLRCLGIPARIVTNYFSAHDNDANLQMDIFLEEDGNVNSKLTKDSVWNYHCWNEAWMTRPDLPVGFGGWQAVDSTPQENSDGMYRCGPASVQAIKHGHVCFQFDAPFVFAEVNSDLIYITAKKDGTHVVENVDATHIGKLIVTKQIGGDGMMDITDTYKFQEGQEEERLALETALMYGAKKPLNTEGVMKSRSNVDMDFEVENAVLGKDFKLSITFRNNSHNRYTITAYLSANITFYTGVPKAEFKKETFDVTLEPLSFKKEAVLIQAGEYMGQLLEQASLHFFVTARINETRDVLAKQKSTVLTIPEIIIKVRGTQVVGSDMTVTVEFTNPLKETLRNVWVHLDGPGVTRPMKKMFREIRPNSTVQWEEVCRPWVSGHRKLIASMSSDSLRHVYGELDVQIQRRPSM", "assay": "Inactivation of endogenous Factor XIII in plasma", "format": "biochemical", "settings": "citrated plasma, thrombin-activated, 5 min at 37° C.", "description": "Citrated plasma (0.235 mL) was “desensitized” by heating with ethylene glycol monomethyl ether (0.235 mL, 20% solution in water) in a glass test tube at 56° C. for 4 min., as described by Lorand (Lorand, L.; Lockridge, O. M.; Campbell, L. K.; Myhrman, R.; Bruner-Lorand, J. Anal.Biochem. 1971, 44, 221-231). After cooling to 37° C., calcium chloride (20 μL, 0.4 M in 50 mM Tris-HCl pH 7.5) and inhibitor solution in 50% glycerol (59 μL) were added. Bovine thrombin (30 NIH units in 118 μL of 50 mM Tris-HCl pH 7.5 containing 20 mM CaCl2) was added and the mixture was incubated at 37° C. for 5 min.\nAn assay mixture composed of 0.1 M sodium borate, pH 9.0, 0.3% ethylene glycol monomethyl ether, 32 μM monodansylcadaverine, 10 mM CaCl2 and 0.08% dimethyl casein in a final volume of 1.263 mL was prepared in a spectrofluorometric cell and incubated at 37° C. for a few minutes. To assay the residual enzyme activity, 567 μL of the plasma solution was transferred to the assay mixture. The covalent incorporation of monodansylcadaverine into casein was monitored by an increase in fluorescence at λex=360 nm and λem=500 nm, as previously described (Curtis, C. G.; Lorand, L. Methods Enzymol. 1976, 45, 177-191). To determine uninhibited enzyme activity, inhibitor solution was replaced by 50% glycerol. IC50 values (inhibitor concentration resulting in 50% enzyme inactivation) were determined by plotting the percent of remaining enzyme activity against logarithm of inhibitor concentration."}, "Guinea pig liver TGase": {"molecular_target": "T2, Guinea pig liver TGase (Cavia cutleri, UniProt P08587)", "T2 construct": "Guinea pig liver TGase; from tissue; host or cells: guinea pig liver", "T2 sequence (P08587 2-690)": "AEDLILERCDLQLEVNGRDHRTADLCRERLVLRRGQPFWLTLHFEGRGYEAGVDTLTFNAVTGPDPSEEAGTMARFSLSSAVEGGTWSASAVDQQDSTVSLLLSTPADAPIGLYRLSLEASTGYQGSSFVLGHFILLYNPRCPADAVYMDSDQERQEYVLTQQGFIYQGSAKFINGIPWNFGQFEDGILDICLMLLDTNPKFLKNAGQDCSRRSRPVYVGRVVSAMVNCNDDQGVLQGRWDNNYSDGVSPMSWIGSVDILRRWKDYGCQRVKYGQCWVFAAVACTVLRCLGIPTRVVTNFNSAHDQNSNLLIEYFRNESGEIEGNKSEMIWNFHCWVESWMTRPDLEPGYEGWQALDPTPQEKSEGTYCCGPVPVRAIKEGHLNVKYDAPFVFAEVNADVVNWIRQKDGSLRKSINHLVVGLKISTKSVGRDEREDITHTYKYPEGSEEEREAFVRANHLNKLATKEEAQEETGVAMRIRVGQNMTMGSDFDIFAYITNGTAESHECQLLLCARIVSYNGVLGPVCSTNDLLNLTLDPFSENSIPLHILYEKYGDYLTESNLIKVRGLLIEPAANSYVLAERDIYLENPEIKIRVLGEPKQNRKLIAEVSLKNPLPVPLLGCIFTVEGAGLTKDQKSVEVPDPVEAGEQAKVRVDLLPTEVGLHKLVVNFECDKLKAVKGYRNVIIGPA", "assay": "Enzyme selectivity: inactivation of tissue type transglutaminase", "format": "biochemical", "settings": "TGAse IC50, Guinea pig liver TGase; 5-min incubation at 37° C. in the absence of substrate", "description": "Enzyme selectivity . Inactivation of tissue type transglutaminase: Inhibitor solution in DMSO (5 μL) was added to 250 mM Tris-Cl pH 7.5 containing 40 mM CaCl2 and 1 mM EDTA in a final volume of 42 μL. Guinea pig liver TGase (3 μL, 2.5 mg/mL in 5 mM Tris-HCl pH 7.5, 2 mM EDTA) was added and the mixture was incubated for 5 min. at 37° C.\nAn assay mixture composed of 50 mM Tris-Cl, pH 8.0, 10 mM CaCl2, 1 mM EDTA, 0.1% poly(ethylene glycol) (app. MW=1000) and 20 μM monodansylcadaverine was prepared in a spectrofluorimetric cell in a final volume of 2952 μL. Dimethylcasein (8 μL, 1% in 50 mM sodium phosphate pH 7.5) was added and the mixture was incubated at 37° C. for a few minutes. To assay the residual enzyme activity, 40 μL of the solution containing the enzyme and the inhibitor was transferred to the assay mixture. The covalent incorporation of monodansylcadaverine into casein was monitored by an increase in fluorescence at λexc=360 nm and λem=500 nm, as previously described ((Curtis, C. G.; Lorand, L. Methods Enzymol. 1976, 45, 177-191). To determine uninhibited enzyme activity, DMSO was used in place of inhibitor solution in the above assay. IC50 values were determined by plotting the percent of remaining enzyme activity against logarithm of inhibitor concentration. IC50 is defined here as inhibitor concentration resulting in 50% enzyme inactivation after 5-min incubation of the enzyme with the inhibitor in the absence of the substrate. Second order rate constants for inactivation were determined using method described by Kitz and Wilson (Kitz, R.; Wilson, I. J.Biol.Chem. 1962,237, 3245)."}},
  "data": [
    {"molecule": "O=S(=O)(NCCCCCCNc1nsc2nccn12)c1cccc2ccccc12", "note": "[1-naphthyl, N-[6-(imidazo[1,2-d][1,2,4]thiadiazol-3-ylamino)hexyl]naphthalene-1-sulfonamide]", "values": [
      {"measurement": "IC50", "setting": "[1]", "result": 8.4, "unit": "µM"},
      {"measurement": "IC50", "setting": "Guinea pig liver TGase", "result": 23, "unit": "µM"}
    ]},
    {"molecule": "O=S(=O)(Cc1ccccc1)NCCCCCCNc1nsc2nccn12", "note": "[2 / CH2Ph, N-[6-(imidazo[1,2-d][1,2,4]thiadiazol-3-ylamino)hexyl]-1-phenylmethanesulfonamide]", "values": [
      {"measurement": "IC50", "setting": "[1]", "result": 19, "unit": "µM"},
      {"measurement": "IC50", "setting": "Guinea pig liver TGase", "result": 27, "unit": "µM"}
    ]},
    {"molecule": "O=S(=O)(NCCCCCCNc1nsc2nccn12)c1ccc(F)cc1F", "note": "[2,4-diF-Ph, 2,4-difluoro-N-[6-(imidazo[1,2-d][1,2,4]thiadiazol-3-ylamino)hexyl]benzenesulfonamide]", "values": [
      {"measurement": "IC50", "setting": "[1]", "result": 6.1, "unit": "µM"},
      {"measurement": "IC50", "setting": "Guinea pig liver TGase", "result": 23, "unit": "µM"}
    ]},
    {"molecule": "O=S(=O)(NCCCCCCNc1nsc2nccn12)c1ccc(OC(F)(F)F)cc1", "note": "[4-OCF3-Ph, N-[6-(imidazo[1,2-d][1,2,4]thiadiazol-3-ylamino)hexyl]-4-trifluoromethoxybenzenesulfonamide]", "values": [
      {"measurement": "IC50", "setting": "[1]", "result": 31, "unit": "µM"},
      {"measurement": "IC50", "setting": "Guinea pig liver TGase", "result": 31, "unit": "µM"}
    ]},
    {"molecule": "O=C(O)CN(CCCCCCNS(=O)(=O)c1ccccc1[N+](=O)[O-])c1nsc2nccn12", "note": "[H / CH2CO2H / 2-NO2-Ph, N-imidazo[1,2-d][1,2,4]thiadiazol-3-yl-N-(6-{[(2-nitrophenyl)sulfonyl]amino}hexyl)glycine]", "values": [
      {"measurement": "IC50", "setting": "Guinea pig liver TGase", "result": 17, "unit": "µM"}
    ]}
  ]
}
